# Experimental data from US20260166084A1, “NOVEL DRUG-INDUCIBLE DEGRADATION TAGS” (THE INSTITUTE OF CANCER RESEARCH: ROYAL CANCER HOSPITAL, priority 2022, published 2026).
# Entries after “also recorded” stand apart in the source; their conditions may differ.
# Columns and labels:
# [1] = biological target: T1, complexes formed between CRBN/DDB1 and IMiDs (Homo sapiens, UniProt Q96SW2); assay: Aiolos peptide-based TR-FRET assay; type: binding; settings: IMiDs at 10 μM
# T1 construct: 5 nM WT full length CRBN/DDB1 complex; made in house
# T1 sequence (Q96SW2 whole entry): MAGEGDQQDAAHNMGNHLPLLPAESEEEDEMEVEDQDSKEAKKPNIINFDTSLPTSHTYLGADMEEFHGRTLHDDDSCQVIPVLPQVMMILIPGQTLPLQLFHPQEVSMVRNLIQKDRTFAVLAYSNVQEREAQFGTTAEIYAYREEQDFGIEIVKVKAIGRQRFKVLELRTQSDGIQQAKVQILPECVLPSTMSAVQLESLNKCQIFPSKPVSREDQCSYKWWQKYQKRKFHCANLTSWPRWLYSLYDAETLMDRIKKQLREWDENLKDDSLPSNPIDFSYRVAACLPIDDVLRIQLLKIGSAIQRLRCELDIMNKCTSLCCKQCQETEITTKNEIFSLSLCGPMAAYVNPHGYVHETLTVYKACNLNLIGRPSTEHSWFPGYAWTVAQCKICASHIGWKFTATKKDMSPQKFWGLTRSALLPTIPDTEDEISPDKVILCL
# T1 sequence (Q16531 whole entry partner): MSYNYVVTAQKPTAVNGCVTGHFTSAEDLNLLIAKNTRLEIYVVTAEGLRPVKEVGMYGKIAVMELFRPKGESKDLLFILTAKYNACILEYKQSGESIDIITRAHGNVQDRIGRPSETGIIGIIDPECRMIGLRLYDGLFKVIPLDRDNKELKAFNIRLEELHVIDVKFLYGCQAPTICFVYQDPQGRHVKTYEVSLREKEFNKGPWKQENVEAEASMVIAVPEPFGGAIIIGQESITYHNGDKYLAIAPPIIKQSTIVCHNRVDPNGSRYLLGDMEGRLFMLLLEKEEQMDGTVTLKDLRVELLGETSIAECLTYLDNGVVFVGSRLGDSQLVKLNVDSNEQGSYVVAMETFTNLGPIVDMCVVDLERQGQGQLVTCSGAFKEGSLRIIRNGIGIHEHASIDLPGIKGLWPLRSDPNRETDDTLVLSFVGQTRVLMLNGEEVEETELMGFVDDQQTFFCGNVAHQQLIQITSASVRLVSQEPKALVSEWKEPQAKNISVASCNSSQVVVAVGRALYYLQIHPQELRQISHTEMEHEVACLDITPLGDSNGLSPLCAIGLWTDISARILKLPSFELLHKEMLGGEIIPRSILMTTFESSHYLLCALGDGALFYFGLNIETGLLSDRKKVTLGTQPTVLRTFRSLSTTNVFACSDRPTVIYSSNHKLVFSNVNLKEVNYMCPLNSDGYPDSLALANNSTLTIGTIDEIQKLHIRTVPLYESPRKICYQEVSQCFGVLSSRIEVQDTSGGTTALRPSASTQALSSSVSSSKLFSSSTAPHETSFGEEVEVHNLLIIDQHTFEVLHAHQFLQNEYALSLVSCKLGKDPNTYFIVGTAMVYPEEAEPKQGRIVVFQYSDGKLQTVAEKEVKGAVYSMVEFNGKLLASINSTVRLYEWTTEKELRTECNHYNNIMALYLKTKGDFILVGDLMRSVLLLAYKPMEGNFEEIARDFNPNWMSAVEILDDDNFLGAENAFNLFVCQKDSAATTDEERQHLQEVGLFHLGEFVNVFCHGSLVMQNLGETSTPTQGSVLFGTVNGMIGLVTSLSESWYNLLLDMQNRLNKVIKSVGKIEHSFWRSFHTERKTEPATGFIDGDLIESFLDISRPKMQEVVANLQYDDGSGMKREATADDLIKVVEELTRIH
# Description: A schematic representation of the Aiolos peptide-based time resolved-Förster resonance energy transfer (TR-FRET) assay is presented in FIG. 11. […] The results are presented in FIG. 12, including the IC50s calculated from the TR-FRET curves. Overall, the IC50s obtained for iTAG2 were higher than those obtained for iTAG1 with about a 10-fold difference.
# All TR-FRET assays were ran in Black 384-well ProxiPlate Plus (Perkin-Elmer, USA), in a buffer containing 20 mM HEPES pH 8.0, 150 mM NaCl, 0.5 mM TCEP, 0.05% Tween 20 and 0.05% BSA, with a final assay volume of 10 μL. An Echo E550 (Beckman Coulter, USA) acoustic liquid dispenser was used to create final concentration ranges from 82 μM down to 2.05 nM for iTAG1 and 27 μM down to 0.68 nM for iTAG2. Final concentrations of 5 nM WT full length CRBN/DDB1 complex, 750 nM Sulfo-Cy5 fluorescent Aiolos-based peptidic probe (Cambridge Research Biochemicals, UK), 750 nM Zn(OAc)^2 and 0.5 nM MAb Anti-6HIS-Terbium cryptate Gold (Cisbio, France) were added with a Tempest liquid handler (Formulatrix, USA). Finally, IMiDs were added to a final concentration of 10 μM with the Echo. Plates were sealed, centrifuged at 200 g for 1 min and stored overnight at 4° C. The TR-FRET signals were read using a PHERAstar FSX plate reader (BMG Labtech, Germany). Final signal was measured as the ratio: […]
# [2] = test system: iTAG2 and DCD23-tagged chimeric antigen receptor (TE9-28-Z); assay: IMiD induced degradation of tagged CAR in transduced Jurkat cells; type: cell-based, human; settings: for time of drug treatment at which maximal reduction of surface expression is detectable: lenalidomide, pomalidomide, iberdomide
# Description: (§1) CAR expression in PBMC-derived T cells following degradation with 10, 1, 0.1, 0.01, 0.001 or 0 uM iberdomide after 24 hours, was assessed by flow cytometry. To assess CAR functionality+/−degrader tag, transduced T cells were cultured 24 hours with SUPT1+/−B7H3 at a 1:1 ratio. Supernatant was harvested, and IL-2 and IFNγ levels determined by ELISA.
# (§2) CAR surface expression for transduction efficiency and degradation experiments in primary cells and cell lines was quantified using his-tagged B7H3 protein in combination with anti his-tagged fluorescent antibody (J095G45, BioLegend), and directly fluorescently labelled anti CD34 antibody (QBEnd10, R&D), using LSR2 cytometer. Analysis used Flo-Jo software.
# TE9-28-Z CAR = assay: IMiD induced degradation and re-expression of tagged CAR in primary human T cells; type: cell-based
# From the text: The re-expression of degraded chimeric antigen receptors following removal of the degrader drug is important for the CAR-T cell to be able to toggle between active and resting states, thereby allowing additional therapeutic manipulation and fine-tuning.
# To evaluate the general functionality of the TE9-28Z-iTAG2 anti-B7H3 CAR-T construct when expressed from a different viral vector, driven by alternate promoter, the construct was cloned into third generation lentivector pCLL2 backbone and viral supernatant was generated by transient transfection of 293T cells, with virus pseudotyped with VSV-G. Two versions of the TE9-28Z-iTAG2 sequence were evaluated in this format, which were with and without codon optimisation and removal of cloning scars. There are no differences in amino acid sequence of iTAG2 between original (construct 3) and codon optimised (construct 4) versions (FIG. 16 a and b). […] The log reduction in CAR expression as expressed as geometric median fluorescence intensity (gMFI) was highly consistent. […]
# PBMC-derived T cells from 2 healthy donor blood cones were cultured following CD56 depletion (day0) which was performed using Miltenyi CD56 depletion beads and magnetic negative selection using LD columns according to manufacturer's instructions. […] Transduction efficiency was assessed 4 days post transduction by flow cytometry staining for RQR8 and CAR expression.
# CAR expression in PBMC-derived T cells following degradation with 10, 1, 0.1, 0.01, 0.001 or 0 uM iberdomide after 24 hours, was assessed by flow cytometry. […] Supernatant was harvested, and IL-2 and IFNγ levels determined by ELISA.
# as §2, with “Analysis used Flo-Jo software.” left out
# HMEC cells = assay: Nuclear localisation by immunofluorescence in HMEC; type: cell-based, human; settings: fluorescence microscopy, FIG. 3b and 13
# Description: To determine localisation of “superdegron” which has a degree of homology with iTAG1, the inventors cloned superdegron into the expression vector to replace iTAG1 as the degron fused with GFP.
# HMEC cells were seeded in glass bottom 96-well plates (Perkin Elmer) at a 1000 cells/well and treated with 1 μg/ml DOX for 24 h to induce construct. Cells were fixed using 4% paraformaldehyde in PBS solution for 15 min at 37° C. and permeabilised with 0.05% Titon-X-100 detergent for 10 min at room temperature. Prior to proceeding to cell imaging, the cells were incubated for a min with 1 μg/ml DAPI (ThermoFisher Scientific) to stain the cell nuclei. Cells were visualised on the Zeiss Axio Vert.A1 FL-LED inverted epifluorescence microscope (Zeiss) and images were captured using the ZEN Blue software (Zeiss).
# [3] = test system: anti-B7H3 chimeric antigen receptor (TE9); assay: Cell surface expression of tagged CAR in transduced Jurkat and 293T cells by flow cytometry; type: cell-based, human; settings: for surface expression of tagged CARs: transduced Jurkat cells, 41BB and CD28 versions of TE9 CAR, FIG. 10; for cell surface expression of tagged CAR relative to CD34 marker: transduced 293T and Jurkat cells, FIG. 6
# Description: Initial experiments evaluated expression and degradation in human Jurat T cell leukaemia cells or human 293T cells, which were stably transduced with untagged, iTAG1(DCD23)-tagged, and iTAG2-tagged anti-B7H3 CAR-T cells. Here the relative expression of the CAR and the CD34 marker gene are determined by direct staining and evaluation by flow cytometry.
# Jurkat and 293T cell lines were grown in DMEM with 10% fetal calf serum and transduced with constructs containing CAR+/−degrader tag. Transduction efficiency was analysed 72 hours post transduction by flow cytometry, staining for the CD34 epitope encoded by the RQR8 gene.
# as §2
# [4] = test system: degron containing domains (DCDs); assay: Degradation matrix of DCD tags with IMiD/CELMoD panel by flow cytometry; type: cell-based; settings: panel of IMiD/CELMoD small molecules, FIG. 1
# From the text: FIG. 1: Experimental evaluation of the DCD tags. (a) Heat map summary of the degradation matrix data of all the DCDs tested in flow cytometry experiments. Normalized values were represented in the Log 2 Fold Change relative to the DMSO control. […] (b) Representation of iTAG1-DCD23 (60 aa). The 2 Cys and 2 His from the C2H2 zinc finger motif are highlighted in light grey. The crucial Glycine in the b-hairpin loop degron is highlighted in bold dark grey.
# To address the limitations of the currently available protein modulation tools, the inventors developed a novel and robust system for targeted protein degradation by exploiting the fusion of an IMiD/CeLMOD recognition sequence to a protein of interest. […] This 60 amino acid sequence is referred to as iTAG1 (DCD23) herein.
# Construct expression was induced by treating cells with 1 μg/ml DOX for 24 h. The cells were treated with IMiDs/CELMoDs at concentrations and time-points indicated for each experimental setting. Cells were collected, on ice, in sterile 5 ml polystyrene round-bottom tubes. DAPI (4′,6-diamidino-2-phenylindole; ThermoFisher Scientific) was added to the cell suspension at a ratio of 1:1000, as a marker for cell viability. The EGFP signal was measured on the BD LSR II flow cytometer (BD Biosciences). Further processing of the results was performed using FlowJo 10 Software (FlowJo).
# [5] = test system: SupT1 cells transduced to express human B7H3; assay: CAR functionality: cytokine ELISA after co-culture with SupT1-B7H3 targets; type: cell-based; settings: primary human T cells
# From the text: To evaluate whether the brighter CAR expression of iTAG2 tagged CAR compared with DCD23-tagged CAR translated into greater effector function, the respective CAR-T populations from the two independent donors were co-cultured overnight with human SupT1 leukaemia target cells isogenic for the target antigen B7H3. Wild type SupT1 have no detectable B7H3 expression. Following overnight culture of T cells with the targets, culture supernatant was harvested and evaluated for inflammatory cytokines interferon gamma and Interleukin-2 by ELISA (FIG. 9).
# as §1
# CRBN/DDB1 complex = biological target: T2, CRBN/DDB1 complex (Homo sapiens, UniProt Q96SW2); assay: Size exclusion chromatography of CRBN/DDB1 and iTAG2 with or without iberdomide; type: binding; settings: 15 μM CRBN/DDB1, 50 μM iTAG2, 100 μM iberdomide, FIG. 14
# T2 construct: made in house
# T2 sequence (Q96SW2 whole entry, one chain of several): as the sequence (Q96SW2 whole entry) above
# T2 sequence (Q16531 2-1140 partner, one chain of several): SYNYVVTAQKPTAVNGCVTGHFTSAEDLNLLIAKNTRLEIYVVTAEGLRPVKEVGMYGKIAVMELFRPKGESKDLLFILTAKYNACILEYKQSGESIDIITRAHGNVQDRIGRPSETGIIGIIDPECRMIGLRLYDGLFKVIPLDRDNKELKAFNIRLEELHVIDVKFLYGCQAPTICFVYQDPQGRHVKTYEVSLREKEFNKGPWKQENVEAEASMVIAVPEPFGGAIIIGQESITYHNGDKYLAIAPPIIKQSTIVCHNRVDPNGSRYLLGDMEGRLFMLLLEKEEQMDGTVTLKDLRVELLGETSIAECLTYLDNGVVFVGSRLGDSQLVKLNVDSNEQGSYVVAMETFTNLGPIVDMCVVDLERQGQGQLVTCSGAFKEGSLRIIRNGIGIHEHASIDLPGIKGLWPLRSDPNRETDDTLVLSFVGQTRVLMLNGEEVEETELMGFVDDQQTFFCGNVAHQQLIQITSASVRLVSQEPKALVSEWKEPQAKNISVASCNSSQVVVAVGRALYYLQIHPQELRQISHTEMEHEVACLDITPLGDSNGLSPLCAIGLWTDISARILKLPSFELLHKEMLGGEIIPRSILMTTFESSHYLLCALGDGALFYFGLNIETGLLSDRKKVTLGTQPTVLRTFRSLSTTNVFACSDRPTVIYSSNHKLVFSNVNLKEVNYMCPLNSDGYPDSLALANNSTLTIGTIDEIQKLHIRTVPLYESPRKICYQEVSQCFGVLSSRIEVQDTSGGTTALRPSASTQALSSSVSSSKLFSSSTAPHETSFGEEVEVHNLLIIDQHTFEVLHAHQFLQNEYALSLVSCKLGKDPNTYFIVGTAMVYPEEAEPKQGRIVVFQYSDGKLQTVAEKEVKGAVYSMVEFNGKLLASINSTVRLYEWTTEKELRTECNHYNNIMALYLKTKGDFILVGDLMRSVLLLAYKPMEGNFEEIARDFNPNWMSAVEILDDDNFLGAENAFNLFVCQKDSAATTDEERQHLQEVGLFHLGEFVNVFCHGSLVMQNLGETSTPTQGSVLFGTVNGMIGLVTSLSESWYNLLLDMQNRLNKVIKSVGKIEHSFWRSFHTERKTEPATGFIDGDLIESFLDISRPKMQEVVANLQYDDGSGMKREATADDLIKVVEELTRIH
# From the text: Biochemical evidence for IMiD-dependent formation of a direct interaction between iTAG2 and the CRBN/DDB1 complex was generated using size exclusion chromatography (SEC). Purified CRBN/DDB1 protein complex and iTAG2 protein were mixed together and subjected to SEC in the presence or absence of iberdomide, shown in FIG. 14. The SEC peak 1 corresponding to the higher molecular weight species was shifted towards a lower elution time in the presence of iberdomide, with a slight increase in the optical density at 280 nm, which is consistent with the formation of a larger complex in the presence of iberdomide (FIG. 14A). SDS-PAGE analysis of representative fractions of the SEC analysis in the absence of iberdomide confirmed that the SEC peak 1 contains only DDB1 and CRBN proteins, with iTAG2 only present in the SEC peak 2 (FIG. 14B).
# SEC was performed using a Superose 6 5/150 GL column (Cytiva Life Sciences) mounted on an Agilent 1260 Infinity II LC System HPLC system. […] 100 μL fractions were collected and samples spanning the elution peaks were analysed by SDS-PAGE on precast NuPAGE 4-12% Bis-Tris gels (Invitrogen) using standard protocols, with SeeBlue Plus2 pre-stained protein standards (Invitrogen) loaded on the first lane of each gel.
# [6] = 1:1 with SupT1-B7H3, overnight, ELISA, FIG. 9
compound,measurement,setting,value
"O=C1CC[C@H](N2Cc3c(OCc4ccc(CN5CCOCC5)cc4)cccc3C2=O)C(=O)N1 [Iberdomide/ CC220, Iberdomide]","relative affinity of iTAG1 and iTAG2 for CRBN/DDB1-IMiD complex, order of IMiDs",[1],tightest binding
same,drug concentration at which nearly maximal downregulation is observed,"[2]; iTAG1(DCD23) and iTAG2 tagged CAR, FIG. 7",0.01 µM
same,"potency for degradation among lenalidomide, pomalidomide and iberdomide","[2]; tagged CAR, FIG. 7",highest potency
same,optimal IMiD concentration to mediate CAR downregulation upon treatment and re-upregulation upon withdrawal,"TE9-28-Z CAR; TE9-iTAG2 CAR-T, overnight treatment, wash, 24 h rest, FIG. 15",0.01 µM
same,CAR expression after drug treatment,"TE9-28-Z CAR; primary human T cells, 10 uM iberdomide for 24 hours, FIG. 8",near complete loss of expression of the brightly expressed CAR population
"SuperDegron: prototypic zinc finger-based 60 amino acid degron, hybrid of ZFP91 and IKZF3 (WO2019089592) (FNVLMVHKRSHTGERPLQCEICGFTCRQKGNLLRHIKLHTGEKPFKCHLCNYACQRRDAL; SuperDegron) [reference compound]",nuclear accumulation / localisation of tagged EGFP/GFP,HMEC cells,strong nuclear localisation
same,surface expression of tagged CARs,[3],weak surface expression
iTAG1: 60 amino acid degron tag based on a chimeric sequence of Ikaros and ZFP91 (PNVLMVHKRSHTGERPLQCEICGFTCRQKGNLLRHIKLHSGEKPFKCHLCNYACRRRDAL),nuclear accumulation / localisation of tagged EGFP/GFP,HMEC cells,predominant nuclear localisation
same,cell surface expression of tagged CAR relative to CD34 marker,[3],relatively poor cell surface expression
same,surface expression of tagged CARs,[3],weak surface expression
same,time of drug treatment at which maximal reduction of surface expression is detectable,[2],4 h
same,drug-induced degradation of DCD tag,[4],induces acute target degradation in vitro and in vivo
same,reduced IL-2 secretion compared with iTAG2 fusion protein,[5]; [6],approximately 30 fold
same,"reduced effector function compared with iTAG2 fusion protein, interferon gamma secretion",[5]; [6],approximately 5 fold
"iTAG2: mutated iTAG1 degron tag, SEQ ID NO: 43, PNVLMVHNESHTGEIPLQCEICGFTCEQAGNLLNHIELHSGEIPFKCHLCNYACRRRDAL (iTAG2)",nuclear accumulation / localisation of tagged EGFP/GFP,HMEC cells,abolished nuclear accumulation; also recorded: cytoplasmic localisation
same,cell surface expression of tagged CAR relative to CD34 marker,[3],superior cell surface expression
same,surface expression of tagged CARs,[3],same expression as wild type
same,time of drug treatment at which maximal reduction of surface expression is detectable,[2],4 h
same,CAR re-expression after drug washout,"TE9-28-Z CAR; washed in PBS, rested 24 h in RPMI1640, FIG. 15",re-upregulated after IMiD washout
same,complex formation by SEC and SDS-PAGE,CRBN/DDB1 complex,"formation of a complex between DDB1, CRBN and iTAG2 in the presence of iberdomide"
same,"antigen-dependent reactivity, superiority over DCD23-tagged CAR-T",[5],approximately 10 fold
same,effector function compared with untagged CAR,"[5]; SupT1-B7H3, FIG. 9",not significantly different to untagged CAR
